Patent publication US20020137929A1, “1 - (3-heterocyclylphenyl) isothiourea, -isourea, -guanidine and -amidine herbicidal agents” (Intellectual Property Department, BASF Aktiengesellschaft, priority 1998, published 2002)

Key:
ORYSAT (Rice, Tebonnet) = experiment: Postemergence herbicidal evaluation; assay type: in vivo, Oryza sativa, (L.) Tebonnet
Summary of the method: (§1)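 Each compound, dispersed in an acetone/water mix (50/50) carrying 0.5% TWEEN 20, is nozzle-sprayed at 40 psi on approximately two-week-old seedlings at about 0.0156–0.500 kg/ha. Plants are assessed 4–5 weeks afterward on a 0–9 scale relative to control; duplicate tests are averaged.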

GALAP (Galium) = experiment: Preemergence herbicidal evaluation; assay type: in vivo, Galium aparine; conditions: rated 4-5 weeks after treatment
Summary of the method: (§2)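 Greenhouse preemergence test: seed-soil mix sown on ~1 inch soil; aqueous acetone spray at equivalent of ~0.0156–0.500 kg/ha; greenhouse-held and watered; scored 0–9 visually at 4–5 weeks.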

CYPSE (Flatsedge) [1] = experiment: Preemergence weed control under flooded paddy conditions; assay type: in vivo, Cyperus serotinus; conditions: rated 3-4 weeks after treatment
Summary of the method: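 Flooded-pot preemergence screen with silt loam and seeds in the upper 0.5 cm. Dose about 0.0313 to 0.500 kg/ha, delivered into flood water; visual 0-9 score after 3 to 4 weeks.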

CASOB (Sicklepod) = experiment: Preemergence herbicidal evaluation; assay type: in vivo, Cassia obtusifolia; conditions: rated 4-5 weeks after treatment
Summary of the method: as §2

AMBEL (Ragweed, Common) [2] = experiment: Postemergence herbicidal evaluation; assay type: in vivo, Ambrosia artemisifolia
Summary of the method: as §1

ZEAMX (Corn, Field) = experiment: Postemergence herbicidal evaluation; assay type: in vivo, Zea mays
Summary of the method: as §1

[3] = tested on: CHEAL (Lambsquarters, Common); experiment: Postemergence herbicidal evaluation; assay type: in vivo, Chenopodium album
Summary of the method: as §1

AMBEL (Ragweed, Common) [4] = experiment: Preemergence herbicidal evaluation; assay type: in vivo, Ambrosia artemisifolia; conditions: rated 4-5 weeks after treatment
Summary of the method: as §2

ABUTH (Velvetleaf) = experiment: Postemergence herbicidal evaluation; assay type: in vivo, Abutilon theophrasti
Summary of the method: as §1

[5] = tested on: CHEAL (Lambsquarters, Common); experiment: Preemergence herbicidal evaluation; assay type: in vivo, Chenopodium album; conditions: rated 4-5 weeks after treatment
Summary of the method: as §2

ECHCG (Barnyardgrass) = experiment: Postemergence herbicidal evaluation; assay type: in vivo, Echinochloa crus-galli
Summary of the method: as §1

CYPIR (Rice Flatsedge) = experiment: Postemergence weed control under flooded paddy conditions; assay type: in vivo, Cyperus iria; conditions: postemergence weeds, 3-4 weeks after treatment
Summary of the method: (§3)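 Weeds 3 to 5 cm tall and rice seedlings at the 1.5 to 2.5 leaf stage were flooded, with water held 1.5 to 3 cm above the soil. Compounds in 50/50 v/v aqueous/acetone went into the flood water at about 0.0313 to 0.500 kg/ha. Visual 0-9 ratings versus control were made 3 to 4 weeks later.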

[6] = tested on: GLXMAW (Soybean, Williams); experiment: Postemergence herbicidal evaluation; assay type: in vivo, Glycine max, (L.) Merr. cv Williams
Summary of the method: as §1

CYPSE (Flatsedge) [7] = experiment: Postemergence weed control under flooded paddy conditions; assay type: in vivo, Cyperus serotinus; conditions: postemergence weeds, 3-4 weeks after treatment
Summary of the method: as §3

CCOC(=O)CN1C(=O)C(CC(=O)OC)S/C1=N/c1cc(-n2c(=O)cc(C(F)(F)F)n(C)c2=O)c(F)cc1Cl (centres unmarked) [Compound 54, 2-{{2-Chloro-5-[3,6-dihydro-3-methyl-2,6-dioxo-4-(trifluoromethyl)-1(2H)-pyrimidinyl]-4-fluorophenyl}imino}-4-oxo-3,5-thiazolidinediacetic acid, 3-ethyl methyl ester]
Postemergence herbicidal rating ORYSAT (ORYSAT (Rice, Tebonnet); Rate 0.0158 kg/ha): 3.0 | Postemergence herbicidal rating ORYSAT (ORYSAT (Rice, Tebonnet); Rate 0.0315 kg/ha): 3.0 | Postemergence herbicidal rating ORYSAT (ORYSAT (Rice, Tebonnet); Rate 0.0630 kg/ha): 6.5 | Preemergence herbicidal rating GALAP (GALAP (Galium); rate 0.0156 kg/ha): 0.0 | Preemergence herbicidal rating GALAP (GALAP (Galium); rate 0.0313 kg/ha): 0.0 | Preemergence herbicidal rating GALAP (GALAP (Galium); rate 0.0625 kg/ha): 0.0 | Preemergence herbicidal rating GALAP (GALAP (Galium); rate 0.1250 kg/ha): 9.0 | Preemergence herbicidal rating GALAP (GALAP (Galium); rate 0.2500 kg/ha): 9.0 | Herbicidal rating CYPSE (CYPSE (Flatsedge) [1]; 0.0313 kg/ha): 0.0 | Herbicidal rating CYPSE (CYPSE (Flatsedge) [1]; 0.0625 kg/ha): 0.0 | Herbicidal rating CYPSE (CYPSE (Flatsedge) [1]; 0.1250 kg/ha): 0.0 | Herbicidal rating CYPSE (CYPSE (Flatsedge) [1]; 0.2500 kg/ha): 4.0 | Preemergence herbicidal rating CASOB (CASOB (Sicklepod); rate 0.0156 kg/ha): 0.0 | Preemergence herbicidal rating CASOB (CASOB (Sicklepod); rate 0.0313 kg/ha): 0.0 | Preemergence herbicidal rating CASOB (CASOB (Sicklepod); rate 0.0625 kg/ha): 0.0 | Preemergence herbicidal rating CASOB (CASOB (Sicklepod); rate 0.1250 kg/ha): 4.5 | Preemergence herbicidal rating CASOB (CASOB (Sicklepod); rate 0.2500 kg/ha): 6.0 | Preemergence herbicidal rating CASOB (CASOB (Sicklepod); rate 0.5000 kg/ha): 9.0 | Postemergence herbicidal rating AMBEL (AMBEL (Ragweed, Common) [2]; Rate 0.0158 kg/ha): 9.0 | Postemergence herbicidal rating AMBEL (AMBEL (Ragweed, Common) [2]; Rate 0.0315 kg/ha): 9.0 | Postemergence herbicidal rating AMBEL (AMBEL (Ragweed, Common) [2]; Rate 0.0630 kg/ha): 9.0 | Postemergence herbicidal rating ZEAMX (ZEAMX (Corn, Field); Rate 0.0158 kg/ha): 7.5 | Postemergence herbicidal rating ZEAMX (ZEAMX (Corn, Field); Rate 0.0315 kg/ha): 8.0 | Postemergence herbicidal rating ZEAMX (ZEAMX (Corn, Field); Rate 0.0630 kg/ha): 9.0 | Postemergence herbicidal rating CHEAL ([3]; Rate 0.0158 kg/ha): 9.0 | Postemergence herbicidal rating CHEAL ([3]; Rate 0.0315 kg/ha): 9.0 | Postemergence herbicidal rating CHEAL ([3]; Rate 0.0630 kg/ha): 9.0 | Preemergence herbicidal rating AMBEL (AMBEL (Ragweed, Common) [4]; rate 0.0156 kg/ha): 0.0 | Preemergence herbicidal rating AMBEL (AMBEL (Ragweed, Common) [4]; rate 0.0313 kg/ha): 0.5 | Preemergence herbicidal rating AMBEL (AMBEL (Ragweed, Common) [4]; rate 0.0625 kg/ha): 8.0 | Preemergence herbicidal rating AMBEL (AMBEL (Ragweed, Common) [4]; rate 0.1250 kg/ha): 9.0 | Preemergence herbicidal rating AMBEL (AMBEL (Ragweed, Common) [4]; rate 0.2500 kg/ha): 9.0 | Preemergence herbicidal rating AMBEL (AMBEL (Ragweed, Common) [4]; rate 0.5000 kg/ha): 9.0 | Postemergence herbicidal rating ABUTH (ABUTH (Velvetleaf); Rate 0.0158 kg/ha): 9.0 | Postemergence herbicidal rating ABUTH (ABUTH (Velvetleaf); Rate 0.0315 kg/ha): 9.0 | Postemergence herbicidal rating ABUTH (ABUTH (Velvetleaf); Rate 0.0630 kg/ha): 9.0 | Preemergence herbicidal rating CHEAL ([5]; rate 0.0156 kg/ha): 4.5 | Preemergence herbicidal rating CHEAL ([5]; rate 0.0313 kg/ha): 9.0 | Preemergence herbicidal rating CHEAL ([5]; rate 0.0625 kg/ha): 9.0 | Preemergence herbicidal rating CHEAL ([5]; rate 0.1250 kg/ha): 9.0 | Preemergence herbicidal rating CHEAL ([5]; rate 0.2500 kg/ha): 9.0 | Preemergence herbicidal rating CHEAL ([5]; rate 0.5000 kg/ha): 9.0 | Postemergence herbicidal rating ECHCG (ECHCG (Barnyardgrass); Rate 0.0158 kg/ha): 9.0 | Postemergence herbicidal rating ECHCG (ECHCG (Barnyardgrass); Rate 0.0315 kg/ha): 9.0 | Postemergence herbicidal rating ECHCG (ECHCG (Barnyardgrass); Rate 0.0630 kg/ha): 9.0 | Herbicidal rating CYPIR (CYPIR (Rice Flatsedge); rate 0.0313 kg/ha): 0.0 | Herbicidal rating CYPIR (CYPIR (Rice Flatsedge); rate 0.0625 kg/ha): 4.0 | Herbicidal rating CYPIR (CYPIR (Rice Flatsedge); rate 0.1250 kg/ha): 4.0 | Herbicidal rating CYPIR (CYPIR (Rice Flatsedge); rate 0.2500 kg/ha): 4.0 | Postemergence herbicidal rating GLXMAW ([6]; Rate 0.0158 kg/ha): 9.0 | Postemergence herbicidal rating GLXMAW ([6]; Rate 0.0315 kg/ha): 9.0 | Postemergence herbicidal rating GLXMAW ([6]; Rate 0.0630 kg/ha): 9.0 | Herbicidal rating CYPSE (CYPSE (Flatsedge) [7]; rate 0.0313 kg/ha): 0.0 | Herbicidal rating CYPSE (CYPSE (Flatsedge) [7]; rate 0.0625 kg/ha): 0.0 | Herbicidal rating CYPSE (CYPSE (Flatsedge) [7]; rate 0.1250 kg/ha): 0.0 | Herbicidal rating CYPSE (CYPSE (Flatsedge) [7]; rate 0.2500 kg/ha): 4.0
